The numbers were not newly measured in patent US8575155B2, “Composition and method to modify sperm function and increase male gender ratio in mammals” (priority 2008, dated 2013), which cites them from elsewhere.

Data set [1] has as its system early-staged mouse embryos.

On to `CCN(CC)c1cc2c(cc1C)Nc1ccc(N)cc1O2` [BCB, 2-methyl-3-diethylamino-7-amino phenoxazine], for which the “increase in oxidation of glucose through the HMS” value in the data set on bovine oocytes is 15 fold. Moreover, the “increase in glucose oxidation through glycolysis” value in the data set with bovine oocytes (compared with the increase through the HMS) was “somewhat less increase”. In addition, the “toxicity of BCB and its metabolites” value in data set [1] is given as “relatively non-toxic”.
